According to patent publication US10881110B2, “Herbicidal compositions comprising isoxazolo[5,4-b]pyridines” (BASF SE, priority 2014, dated 2021):
Where “and” joins values, the source holds several entries; their conditions need not be identical. Equal entries are not always repeated. Where two headings read alike, the source gives them in different places.

What was measured:
Assay in all cases: greenhouse post-emergence herbicidal test
ABUTH = format: in vivo, Abutilon theophrast; design: key to herbicidal activity against ABUTH found: rating on a scale from 0 to 100; details: post emergence; for pest or weed control at 31.25 g/ha: Abutilon theophrasti, post-emergence, 480 h, read-out: herbicidal activity against ABUTH found
Outline: (§1)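 Herbicidal effect is rated visually from 0, no damage, to 100, complete kill, twenty days after treating plants of 1–15 cm height. Substrate is medium loamy sand with about 4.6% humus; holding temperature depends on species, either 10-25° C or 20-35° C.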

DIGSA = format: in vivo, Digitaria sanguinalis
Protocol: (§2) The culture containers used were plastic pots containing medium loamy sand with approximately 4.6% of humus and 69.9% sand as substrate. The seeds of the test plants were sown separately for each species.
(§3) For the post-emergence treatment, the test plants were grown to a plant height of from 1 to 15 cm, depending on the plant habit, and only then treated with the active compounds which had been suspended or emulsified in water. To this end, the test plants were either sown directly, and grown in the same containers, or they were first grown separately as seedlings and transplanted into the test containers a few days prior to treatment.
(§4) Depending on the species, the plants were kept at 10-25° C. and 20-35° C., respectively.
(§5) The test period extended over 1 to 3 weeks. During this time, the plants were tended and their response to the individual treatments was evaluated 20 days after treatment except mentioned otherwise.
(§6) Evaluation was carried out using a scale from 0 to 100. 100 means no emergence of the plants, or complete destruction of at least the above-ground parts, and 0 means no damage or normal course of growth.
(§7) The respective stated components A and B, and, if appropriate, C, were formulated as a 10% by weight strength emulsion concentrate and, with addition of the amount of solvent system, introduced into the spray liquor used for applying the active compound. In the examples, the solvent used was water.
(§8) In the examples below, using the method of S. R. Colby (1967) “Calculating synergistic and antagonistic responses of herbicide combinations”, Weeds 15, p. 22 ff., the value E, which is expected if the activity of the individual active compounds is only additive, was calculated. E=X+Y−(X·Y/100)

LAMAM = format: in vivo, Lamium amplexicaule; design: key: scale 0 to 100
Protocol: as §2, §3, §4, §5, §6, §7, §8

CHEAL = format: in vivo, Chenopodium album
Outline: as §1

[1] = a.i. g/ha: I.1 15.6, B.67 125, 20 days after treatment
[2] = a.i. g/ha: I.1 31.25, B.67 125, 20 days after treatment
[3] = a.i. g/ha: I.1 62.5, B.69 25, 20 days after treatment
[4] = application rate a.i.: I.1 31.25 g/ha, B.139 (pyroxasulfone) 25 g/ha, alone or as mixture (composition 1.139)
[5] = a.i. g/ha: I.1 31.25, B.76 225, 20 days after treatment
[6] = a.i. g/ha: I.1 62.5, B.76 225, 20 days after treatment

O=C(O)c1cc(C2CC2)nc2onc(C3CC3)c12 [I.1]
pest or weed control at 31.25 g/ha (ABUTH; I.1 31.25 g/ha a.i.): 20%
pest or weed control at 31.25 g/ha (ABUTH; single active, 31.25 g/ha a.i.): 0%
herbicidal activity against ABUTH found (ABUTH; 6 days after treatment, g/ha a.i.: I.1 31.25, B.96 35, mixture 31.25+35): 35
herbicidal activity against ABUTH found (ABUTH; 6 days after treatment, g/ha a.i.: I.1 31.25, B.96 70, mixture 31.25+70): 35
herbicidal activity against ABUTH found (ABUTH; 6 days after treatment, g/ha a.i.: I.1 31.25, naptalam 100, mixture 31.25+100): 35
herbicidal activity against ABUTH found (ABUTH; I.1 31.25 g/ha, B.88 1 g/ha a.i.): 60
herbicidal activity against ABUTH found (ABUTH; I.1 31.25 g/ha, B.89 25 g/ha a.i.): 60
herbicidal activity against ABUTH found (ABUTH; I.1 62.5 g/ha, B.167 62.5 g/ha a.i.): 0
herbicidal activity against ABUTH found (ABUTH; I.1 62.5 g/ha, B.167 125 g/ha a.i.): 0
herbicidal activity against ABUTH found (ABUTH; a.i. g/ha: I.1 7.8, B.67 125, 20 days after treatment): 0%
herbicidal activity against ABUTH found (ABUTH; [1]): 30%
herbicidal activity against ABUTH found (ABUTH; [2]): 60%
herbicidal activity against ABUTH found (ABUTH; a.i. g/ha: I.1 31.25, B.67 125, 20 days after treatment, sub-table r36-r43): 60%
herbicidal activity against ABUTH found (ABUTH; a.i. g/ha: I.1 62.5, B.67 125, 20 days after treatment): 90%
herbicidal activity against ABUTH found (ABUTH; [3]): 50%
herbicidal activity against ABUTH found (ABUTH; application rate a.i.: I.1 20.8 g/ha, B.107 (topramezone) 6 g/ha, alone or as mixture (composition 1.107)): 0
herbicidal activity against ABUTH found (ABUTH; [4]): 10
herbicidal activity against ABUTH found (ABUTH; application rate a.i.: I.1 62.5 g/ha, B.107 (topramezone) 6 g/ha, alone or as mixture (composition 1.107)): 66
herbicidal activity against ABUTH found (ABUTH; applied alone at 31.25 g/ha a.i.): 30 and 25
herbicidal activity against ABUTH found (ABUTH; applied alone at 62.5 g/ha a.i.): 50 and 85
herbicidal activity against ABUTH found (ABUTH; applied alone at 125 g/ha a.i.): 60
herbicidal activity against ABUTH found (ABUTH; g/ha a.i.: I.1 31.25, B.20 2, mixture 31.25+2): 15
herbicidal activity against ABUTH found (ABUTH; g/ha a.i.: I.1 31.25, B.20 4, mixture 31.25+4): 15
herbicidal activity against ABUTH found (ABUTH; g/ha a.i.: I.1 31.25, B.24 2, mixture 31.25+2): 15
herbicidal activity against ABUTH found (ABUTH; g/ha a.i.: I.1 31.25, B.52 2.5, mixture 31.25+2.5): 15
herbicidal activity against ABUTH found (ABUTH; g/ha a.i.: I.1 31.25, B.52 5, mixture 31.25+5): 15
herbicidal activity against ABUTH found (ABUTH; g/ha a.i.: I.1 62.5, B.52 2.5, mixture 62.5+2.5): 60
herbicidal activity against DIGSA found (DIGSA; [5]): 35%
herbicidal activity against DIGSA found (DIGSA; [6]): 40%
herbicidal activity against DIGSA found (DIGSA; a.i. g/ha: I.1 62.5, B.80 250, 20 days after treatment): 40%
herbicidal activity against DIGSA found (DIGSA; application rate a.i.: I.1 250 g/ha, B.193 15 g/ha, alone or as mixture (composition 1.193)): 35
herbicidal activity against LAMAM, found (LAMAM; 31.25 g/ha a.i.): 70
herbicidal activity against LAMAM, found (LAMAM; [4]): 80
herbicidal activity against LALAM, found (LAMAM; application rate a.i.: I.1 31.25 g/ha, B.87 (carfentrazone-ethyl) 1.75 g/ha, alone or as mixture (composition 1.87)): 70
herbicidal activity against LAMAM, found (LAMAM; application rate a.i.: I.1 62.5 g/ha, B.87 (carfentrazone-ethyl) 1.75 g/ha, alone or as mixture (composition 1.87)): 85
herbicidal activity against CHEAL found (CHEAL; a.i. g/ha: I.1 6.9, B.67 62.5, 20 days after treatment): 0%
herbicidal activity against CHEAL found (CHEAL; a.i. g/ha: I.1 15.6, B.190 62.5, 20 days after treatment): 70%
herbicidal activity against CHEAL found (CHEAL; [1]): 0%
herbicidal activity against CHEAL found (CHEAL; a.i. g/ha: I.1 20.8, B.192 62.5, 20 days after treatment): 85%
herbicidal activity against CHEAL found (CHEAL; a.i. g/ha: I.1 20.8, B.67 62.5, 20 days after treatment): 85%
herbicidal activity against CHEAL found (CHEAL; [2]): 65%
herbicidal activity against CHEAL found (CHEAL; a.i. g/ha: I.1 31.25, B.69 25, 20 days after treatment): 30%
herbicidal activity against CHEAL found (CHEAL; [5]): 30%
herbicidal activity against CHEAL found (CHEAL; [3]): 60%
herbicidal activity against CHEAL found (CHEAL; [6]): 60%
herbicidal activity against CHEAL found (CHEAL; a.i. g/ha: I.1 62.5, B.82 31.25, 20 days after treatment): 60%
